Results from paper PMC9714921 (PLOS Pathogens, 2022).
Several values for one entry are separate records, joined by “and”; a condition that tells them apart may be missing. Identical values can stand only once. Entries after “also recorded” stand apart in the source; their conditions may differ. Like-named read-outs stand apart in the source and are kept apart here.

Columns and labels:
Dme-ACR-16 = Dme-ACR-16 (Dracunculus medinensis, UniProt A0A0N4U0T6); assay: cell-based; assay type: cell-based
Dme-ACR-16, sequence (A0A0N4U0T6 entry or part of it): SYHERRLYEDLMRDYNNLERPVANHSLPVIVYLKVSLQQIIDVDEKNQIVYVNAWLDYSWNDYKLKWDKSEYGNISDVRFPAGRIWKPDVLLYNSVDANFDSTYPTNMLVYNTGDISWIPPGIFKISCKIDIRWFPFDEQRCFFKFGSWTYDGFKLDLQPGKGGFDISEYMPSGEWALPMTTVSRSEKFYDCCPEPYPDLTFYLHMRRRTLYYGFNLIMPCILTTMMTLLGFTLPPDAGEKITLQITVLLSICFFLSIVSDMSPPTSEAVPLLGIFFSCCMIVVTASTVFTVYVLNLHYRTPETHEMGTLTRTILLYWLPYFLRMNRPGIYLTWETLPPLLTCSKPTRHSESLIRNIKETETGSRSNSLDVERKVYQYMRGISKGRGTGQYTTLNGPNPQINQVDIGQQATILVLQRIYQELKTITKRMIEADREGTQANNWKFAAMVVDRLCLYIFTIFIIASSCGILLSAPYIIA
Protocol: (§1) cRNA for oocyte injection was prepared with the mMESSAGE mMACHINE T7 kit following manufacturers protocol (Ambion, USA). Concentration was determined using a Nanodrop spectrophotometer. Desired subunit combinations with associated accessory proteins were mixed and diluted with nuclease-free water to a final concentration of 250 ng/uL for each construct.
(§2) Adult female X. laevis oocyte extraction was performed in accordance with the McGill University Animal Use Protocol 2015–7758 following standard protocol. Briefly, frog ovary lobes were placed in a Ca^2+-free OR2 solution (82 mM NaCl, 2 mM KCl, 1 mM MgCl2, 5 mM HEPES buffer, pH 7.3) and manually divided into clusters of <10 oocytes with thin tweezers followed by a 90-minute incubation in 10 mg/mL collagenase type II (Sigma-Aldrich, USA). Oocytes were washed in Ca^2+-free OR2 and placed ND96 solution (NaCl 96 mM, KCl 2 mM, CaCl2 1.8 mM, MgCl2 1 mM and HEPES 5 mM, pH 7.3) supplemented with sodium pyruvate 2.5 mM [86] and incubated at 18°C until cRNA injection. Oocytes were injected with 50 nL (12.5 ng of each injected gene) of the desired cRNA subunit and accessory protein combination mix with the NanojectII (Drummond Scientific, USA). Following injection, oocytes were incubated in ND96 buffer at 18°C until electrophysiology. All electrophysiology was conducted two days post-injection, except for the expression analysis assay in which oocytes were measured every day after injection for three consecutive days.
(§3) All drugs were dissolved in recording solution (NaCl 100 mM, KCl 2.5 mM, CaCl2 1 mM, HEPES 5 mM, pH 7.3) to a stock concentration of 10 mM and diluted to their final recording concentrations. Oxantel and bephenium were first dissolved in DMSO to ensure a final recording concentration contained less than 0.1% DMSO. For agonist profiling, all drugs were diluted to a concentration of 100 μM.
(§4) Oocytes were placed individually in an RC3Z chamber (Harvard Apparatus, USA) submerged in recording solution (NaCl 100 mM, KCl 2.5 mM, CaCl2 1 mM, HEPES 5 mM, pH 7.3). The RC3Z chamber was connected to a perfusion system containing recording solution and ligand solutions. Pulled glass capillaries (World Precision Instruments, USA) were filled with 3M KCl and the tips clipped and checked for appropriate resistance (between 0.5 and 5 MΩ). A 3M KCl agar bridge grounded the oocyte bath chamber. Measurements were made using an Axon Axoclamp 900A amplifier with Digidata1550M. […] Ligand solutions were applied to the oocytes with an approximate flow rate of 1.2 m/s and current responses measured. Oocytes were exposed to the ligand solution until a distinct current peak was observed followed by a wash with the recording solution until current returned to baseline for a minimum of 10 seconds until the next ligand exposure. For BAPTA-AM exposed oocytes, oocytes were incubated in 100 μM BAPTA-AM for four hours prior to electrophysiology recording. Data was analyzed using Clampex 9.2 (Axon Instruments, USA) and statistical analysis and graphs produced in Prism (GraphPad version 9.1). T-tests were used to compare responses with error bars representing standard error. For concentration-response curves, individual oocyte current response to the different ligand concentrations were normalized to the response obtained with 300 μM. Data was fit using the Graphpad “log(agonist) vs normalized response–variable slope” equation, with 95% confidence intervals being reported. […] For examples of oocyte responses, recordings were filtered in Clampfit using the lowband pass at 40 Hz cutoff.

Tzc-ACR-16 = Tzc-ACR-16 (Thelazia callipaeda, UniProt A0A158RD20); assay: cell-based; assay type: cell-based
Tzc-ACR-16, sequence (A0A158RD20 entry or part of it): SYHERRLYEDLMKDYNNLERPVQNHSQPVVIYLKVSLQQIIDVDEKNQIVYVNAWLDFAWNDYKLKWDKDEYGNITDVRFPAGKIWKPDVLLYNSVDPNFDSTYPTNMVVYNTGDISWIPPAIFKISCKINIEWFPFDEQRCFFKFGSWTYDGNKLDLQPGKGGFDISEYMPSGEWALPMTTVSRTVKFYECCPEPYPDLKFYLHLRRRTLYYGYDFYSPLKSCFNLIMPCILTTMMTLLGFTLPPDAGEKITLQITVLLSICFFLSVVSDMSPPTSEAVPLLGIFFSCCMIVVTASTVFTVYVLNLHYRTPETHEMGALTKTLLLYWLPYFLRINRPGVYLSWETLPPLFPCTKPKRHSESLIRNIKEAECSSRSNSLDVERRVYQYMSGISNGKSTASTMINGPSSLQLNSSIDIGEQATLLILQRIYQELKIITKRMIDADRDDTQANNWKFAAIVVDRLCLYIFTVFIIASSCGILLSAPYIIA
Protocol: as §1, §2, §3, §4

Bma-ACR-16 = assay type: cell-based, Brugia malayi
Protocol: as §1, §2, §3, §4

Gpu-ACR-16 = assay: Voltage-clamp electrophysiology, N-AChR reconstituted in Xenopus laevis oocytes; assay type: cell-based, Gonglyonema pulchrum
Protocol: as §1, §2, §3, §4

C. elegans N-AChR = tested on: C. elegans N-AChR; parameters: method as in Charvet et al., 2018 [40]; conditions: read-out: EC50 μM ACh; accessory protein Ric-3; ref Charvet et al., 2018 [40]; cited from earlier work
T. muris N-AChR = conditions: read-out: EC50 μM ACh; accessory protein Ric-3; ref [35]; cited from earlier work
[1] = No accessory protein, listed as acetylcholine
[2] = co-injected: Bma-ric-3 + Bma-eat-18
[3] = co-injected: Bma-ric-3 + Bma-molo-1
[4] = co-injected: Bma-ric-3 + Bma-unc-50 + Bma-unc-74
[5] = co-injected: Bma-ric-3 + Bma-unc-50 + Bma-unc-74 + Bma-eat-18
[6] = co-injected: Bma-ric-3 + Cel-emc-6
[7] = co-injected: Bma-ric-3 + Cel-nra-2 + Cel-nra-4
[8] = co-injected: Hco-ric-3, listed as acetylcholine
[9] = co-injected: Bma-ric-3 (reference condition)
[10] = co-injected: Bma-ric-3 (reference condition), listed as acetylcholine
[11] = co-injected: Bma-ric-3 + Cel-nra-2 + Cel-nra-4, listed as acetylcholine

Compound: CC(=O)OCC[N+](C)(C)C [ACh, acetylcholine]
- EC50 (Dme-ACR-16): 12.8 µM
- response to 100 μM acetylcholine normalized to Day 3 response (Dme-ACR-16; Day 1 post-injection): 49 ± 7%
- response to 100 μM acetylcholine normalized to Day 3 response (Dme-ACR-16; Day 2 post-injection): 102 ± 7%
- current response to 100 μM acetylcholine (Dme-ACR-16; No accessory protein): 1290 ± 70 nA
- current response to 100 μM acetylcholine (Dme-ACR-16; [1]): 1290 ± 70 (n=17) nA
- current response to 100 μM acetylcholine (Dme-ACR-16; [2]): 2649 ± 112 (n=11) ns nA
- current response to 100 μM acetylcholine (Dme-ACR-16; [3]): 2354 ± 108 (n=13) ns nA
- current response to 100 μM acetylcholine (Dme-ACR-16; [4]): 2368 ± 105 (n=13) ns nA
- current response to 100 μM acetylcholine (Dme-ACR-16; [5]): 2222 ± 62 (n=15) ns nA
- current response to 100 μM acetylcholine (Dme-ACR-16; [6]): 2183 ± 87 (n=11) ns nA
- current response to 100 μM acetylcholine (Dme-ACR-16; [7]): 2425 ± 133 (n=12) ns nA
- current response to 100 μM acetylcholine (Dme-ACR-16; co-injected: Hco-ric-3): 2000–2200 nA
- current response to 100 μM acetylcholine (Dme-ACR-16; [8]): 2150 ± 59 nA and 2150 ± 59 (n=15) ns nA
- EC50 (Tzc-ACR-16): 17.4 µM
- response to 100 μM acetylcholine normalized to Day 3 response (Tzc-ACR-16; Day 1 post-injection): 7 ± 1%
- response to 100 μM acetylcholine normalized to Day 3 response (Tzc-ACR-16; Day 2 post-injection): 47 ± 12%
- current response to 100 μM acetylcholine (Tzc-ACR-16; No accessory protein): 0 ± 0 nA
- current response to 100 μM acetylcholine (Tzc-ACR-16; [1]): 0 ± 0 (n=15) nA
- current response to 100 μM acetylcholine (Tzc-ACR-16; [9]): 818 ± 112 nA
- current response to 100 μM acetylcholine (Tzc-ACR-16; [10]): 818 ± 112 (n=13) nA
- current response to 100 μM acetylcholine (Tzc-ACR-16; [2]): 791 ± 119 (n=8) ns nA
- current response to 100 μM acetylcholine (Tzc-ACR-16; [3]): 660 ± 76 (n=15) ns nA
- current response to 100 μM acetylcholine (Tzc-ACR-16; [4]): 367 ± 43 nA
- current response to 100 μM acetylcholine (Tzc-ACR-16; [5]): 964 ± 101 (n=15) ns nA
- current response to 100 μM acetylcholine (Tzc-ACR-16; co-injected: Bma-ric-3 + Bma-unc-50 + Bma-unc-74, listed as acetylcholine): 367 ± 43 (n=15) nA
- current response to 100 μM acetylcholine (Tzc-ACR-16; [6]): 720 ± 70 (n=13) ns nA
- current response to 100 μM acetylcholine (Tzc-ACR-16; [7]): 1263 ± 88 nA
- current response to 100 μM acetylcholine (Tzc-ACR-16; [11]): 1263 ± 88 (n=15) nA
- current response to 100 μM acetylcholine (Tzc-ACR-16; co-injected: Hco-ric-3): 400–600 nA
- current response to 100 μM acetylcholine (Tzc-ACR-16; [8]): 563 ± 39 nA and 563 ± 39 (n=13) nA
- current response to 100 μM acetylcholine (Bma-ACR-16; No accessory protein): 0 ± 0 (n=12) nA
- current response to 100 μM acetylcholine (Bma-ACR-16; [9]): no responses and 0 ± 0 (n=8) nA
- current response to 100 μM acetylcholine (Bma-ACR-16; [2]): 0± 0 (n=10) nA
- current response to 100 μM acetylcholine (Bma-ACR-16; co-injected: Bma-ric-3 + Bma-emc-6 + Cel-nra-2 + Cel-nra-4): 11 ± 9 nA
- current response to 100 μM acetylcholine (Bma-ACR-16; co-injected: Bma-ric-3 + Bma-emc-6 + Cel-nra-2 + Cel-nra-4 + Bma-eat-18): 2 ± 1 nA
- current response to 100 μM acetylcholine (Bma-ACR-16; co-injected: Bma-ric-3 + Bma-emc-6 + Cel-nra-2 + Cel-nra-4 + Bma-eat-18 + Bma-unc-50 + Bma-unc-74): 0 ± 0 nA
- current response to 100 μM acetylcholine (Bma-ACR-16; co-injected: Bma-ric-3 + Bma-emc-6 + Cel-nra-2 + Cel-nra-4 + Bma-eat-18 + Bma-unc-50 + Bma-unc-74, listed as acetylcholine): 0 ± 0 (n=11) nA
- current response to 100 μM acetylcholine (Bma-ACR-16; co-injected: Bma-ric-3 + Bma-emc-6 + Cel-nra-2 + Cel-nra-4 + Bma-eat-18, listed as acetylcholine): 2 ± 1 (n=12) ns nA
- current response to 100 μM acetylcholine (Bma-ACR-16; co-injected: Bma-ric-3 + Bma-emc-6 + Cel-nra-2 + Cel-nra-4, listed as acetylcholine): 11 ± 9 (n=11) ns nA
- current response to 100 μM acetylcholine (Bma-ACR-16; [3]): 0 ± 0 (n=16) nA
- current response to 100 μM acetylcholine (Bma-ACR-16; [4]): 0 ± 0 (n=5) nA
- current response to 100 μM acetylcholine (Bma-ACR-16; [5]): 0 ± 0 (n=13) nA
- current response to 100 μM acetylcholine (Bma-ACR-16; [6]): 17 ± 4 nA and 17 ± 4 (n=13) nA
- current response to 100 μM acetylcholine (Bma-ACR-16; co-injected: Bma-ric-3 + Cel-nra-2): 33 ± 9 nA
- current response to 100 μM acetylcholine (Bma-ACR-16; [11]): 4 ± 2 nA and 4 ± 2 (n=12) nA
- current response to 100 μM acetylcholine (Bma-ACR-16; co-injected: Bma-ric-3 + Cel-nra-2, listed as acetylcholine): 33 ± 9 (n=14) nA
- current response to 100 μM acetylcholine (Bma-ACR-16; co-injected: Bma-ric-3 + Cel-nra-4): 31 ±13 nA
- current response to 100 μM acetylcholine (Bma-ACR-16; co-injected: Bma-ric-3 + Cel-nra-4, listed as acetylcholine): 31 ± 13 (n=12) ns nA
- current response to 100 μM acetylcholine (Bma-ACR-16; co-injected: Hco-ric-3): no measurable current; also recorded: no responses
- current response to 100 μM acetylcholine (Bma-ACR-16; [8]): 0 ± 0 nA and 0 ± 0 (n=12) nA
- response to 100 μM acetylcholine normalized to Day 3 response (Gpu-ACR-16; Day 1 post-injection): 19 ± 6%
- response to 100 μM acetylcholine normalized to Day 3 response (Gpu-ACR-16; Day 2 post-injection): 76 ± 6%
- current response to 100 μM acetylcholine (Gpu-ACR-16; No accessory protein): 0 ± 0 nA
- current response to 100 μM acetylcholine (Gpu-ACR-16; [1]): 0 ± 0 (n=14) nA
- current response to 100 μM acetylcholine (Gpu-ACR-16; [9]): 1281 ± 197 nA
- current response to 100 μM acetylcholine (Gpu-ACR-16; [10]): 1281 ± 197 (n=8) nA
- current response to 100 μM acetylcholine (Gpu-ACR-16; [2]): 1264 ± 177 (n=10) ns nA
- current response to 100 μM acetylcholine (Gpu-ACR-16; [3]): 1049 ± 77 (n=16) ns nA
- current response to 100 μM acetylcholine (Gpu-ACR-16; [4]): 847 ± 124 (n=14) ns nA
- current response to 100 μM acetylcholine (Gpu-ACR-16; [5]): 1854 ± 83 nA
- current response to 100 μM acetylcholine (Gpu-ACR-16; co-injected: Bma-ric-3 + Bma-unc-50 + Bma-unc-74 + Bma-eat-18, listed as acetylcholine): 1854 ± 83 (n=14) nA
- current response to 100 μM acetylcholine (Gpu-ACR-16; [6]): 1628 ± 123 (n=17) ns nA
- current response to 100 μM acetylcholine (Gpu-ACR-16; [7]): 2553 ± 123 nA
- current response to 100 μM acetylcholine (Gpu-ACR-16; [11]): 2553 ±123 (n=12) nA
- current response to 100 μM acetylcholine (Gpu-ACR-16; co-injected: Hco-ric-3): ~ 1400 nA
- current response to 100 μM acetylcholine (Gpu-ACR-16; [8]): 1403 ± 91 nA and 1403 ± 91 (n=14) ns nA
- EC50 (Gpu-ACR-16; read-out: EC50 ACh, concentration-response 0.3-300 μM, normalized to 300 μM, with 95% CI): 10.5 µM
- EC50 (C. elegans N-AChR): 22 ± 1.2 µM
- EC50 (T. muris N-AChR): 31.1 ± 0.3 µM
